Experimental data taken from US20080021099A1, “5-Cyano-prostacyclin derivatives as agents for the treatment of autoimmune disease” (Bayer Schering Pharma Aktiengesellschaft, priority 2006, published 2008).
Where two headings read alike, the source gives them in different places.

How the values were obtained:
Format in all cases: cell-based
[1] = system: human T cells; assay: ConA-stimulated T lymphocyte Th-1 cytokine (IFN-γ) release, ELISA; settings: for inhibition at 0.0005 µM / inhibition at 0.00125 µM / inhibition at 0.0025 µM / inhibition at 0.005 µM / inhibition at 0.01 µM / inhibition at 0.02 µM: Homo sapiens, T-cell, 18 h, ConA 2 μg/mL, approx. 18 hr, read-out: Inhibition (percent) of IFN-γ release; for inhibition at 0.0005 µM: Nileprost 0.5 nM; for inhibition at 0.00125 µM: Nileprost 1.25 nM; for inhibition at 0.0025 µM: Nileprost 2.5 nM; for inhibition at 0.005 µM: Nileprost 5 nM; for inhibition at 0.01 µM: Nileprost 10 nM; for inhibition at 0.02 µM: Nileprost 20 nM
Description: The activation of a human T lymphocyte by an antigen-presenting cell and antigen through the T cell receptor is mimicked in experimental conditions by the lectin Concanavilin A (ConA). It is known that ConA binds to the T cell receptor and stimulates the cell to release various cytokines. The binding of Nileprost to the EP receptor inhibits various cytokines release. One of the Th-1 released cytokines is IFN-γ. The biochemistry and biological activities of IFN-γ have been extensively reviewed in the literature.
Human IFN-γ is a dimer of the expressed 143 amino acid protein. Enzyme-linked immunosorbant assays (ELISA) based on antibodies specific to IFN-γ are commercially available. Standards and samples are pipetted into the wells of a microplate. An antibody specific to human IFN-γ is added to the wells. A substrate is added to the wells and color develops in proportion to the amount of IFN-γ bound. The intensity of the color is measured.
Peripheral blood lymphocytes were isolated from human donors using a Ficoll density gradient and residual erythrocytes were removed by selective lysis. The lymphocytes are cultured at approximately 10^6 cells per mL in RPMI1640 with 10% additional fetal bovine serum. The cell cultures were activated with 2 μg/mL of ConA as described above. Nileprost was added at various dilutions during the ConA activation. Cells were incubated for approximately 18 hr at 37° C. IFN-γ released during activation was measured by ELISA.

[2] = system: human CD8 cells; assay: Anti-CD3/CD28-stimulated cytotoxic CD8+ lymphocyte cytokine release, multi-cytokine bead immunoassay; settings: 1 μM Nileprost; for inhibition at 1 µM: Homo sapiens, Lymphocyte, Anti-CD3/CD28 stimulation, overnight
Description: The activation of a human T lymphocyte by an antigen-presenting cell and antigen through the T cell receptor is mimicked in experimental conditions by the addition of antibodies to the CD3 subunit of the T cell receptor and antibodies to the CD28 costimulatory receptor. It is known that anti-CD3 anti-CD28 binding to T lymphocytes stimulates the cells to release various cytokines. Some of these cytokines are IL-2, IFN-γ and GM-CSF. The biochemistry and biological activities of these cytokines have been extensively reviewed in the literature. The binding of Nileprost to the EP receptor inhibits the release of various CD8+ cytokines.
Multi-cytokine immunosorbant assays based on antibodies specific to human cytokines are commercially available. Standards and samples are pipetted into sample tubes. A monoclonal antibody specific for a cytokine is covalently linked to a fluorescent bead set, which captures the cytokine. A complementary biotinylated monoclonal cytokine antibody then completes the immunological sandwich and the reaction is detected with streptavidin-phycoerythrin.
CD14-negative populations were isolated from four donors by Miltenyi CD14 beads. The four populations were allowed to rest at 5×10^6/mL in separate flasks overnight in RPMI 1640, 10% fetal bovine serum. Meanwhile, anti-CD3 antibody (OKT3, functional antibody, eBioscience) were bound to 10 cm plates at 5 μg/mL in sodium carbonate binding buffer at 4° C. The next day, the cells were mixed and 1×10^9 cells were taken for CD8 isolation using the Milenyi CD8 isolation kit (negative selection). The resulting 3.9×10^8 CD8 cells were resuspended in medium at 4×10^6/mL and added to the 10 cm CD3-bound plates. Soluble anti-CD28 (2-5 μg/mL) and 1 μM Nileprost or vehicle alone were added to the CD8 cells. Incubation was continued overnight and cytokines were detected as described above.

[3] = system: Human monocyte derived dendritic cells; assay: LPS-stimulated monocyte-derived dendritic cell IL-12 release, ELISA; settings: for inhibition at 1 µM: Homo sapiens, Dendritic cell, 18 h, read-out: Inhibition (percent) of IL-12 release; for inhibition at 1 µM / Inhibition (percent) of IL-12 release: 10 ng/mL LPS, approx. 18 hr; for Inhibition (percent) of IL-12 release: 1 µM of PGE2
Description: Following stimulation through the toll-like receptors TLR, DCs express and release proinflammatory cytokines and chemokines and may induce activation and proliferation of naïve T cells. The binding of Nileprost to the EP receptor inhibits TLR4 ligand (LPS)-stimulated IL-12 release. Therefore, Nileprost skews the CD4 T cell differentiation to a Th-2 lineage.
IL-12 is a 75 kDa glycoprotein heterodimer (p70) composed of two genetically unrelated subunits linked by a disulfide bond. Enzyme-linked immunosorbant assays based on antibodies specific to IL-12 p70 are commercially available. Standards and samples are pipetted into the wells of a microplate. An antibody specific to human IL-12 is added to the wells. A substrate is added to the wells and color develops in proportion to the amount of IL-12 bound. The intensity of the color is measured.
Human monocyte-derived dendritic cells were isolated from human donors using a Ficoll density gradient and residual erythrocytes were removed by selective lysis. CD14 MicroBeads were used for separation of human cells based on the expression of the CD14 antigen. The dendritic cells were cultured at approximately 1.5×10^6 cells per mL in RPMI1640 with fetal bovine serum, 200 ng/mL GM-CSF (Leukine) and 10 ng/mL IL-4. The cells grew for a period of 3 days and then the media was changed. 10 ng/mL LPS was used to activate the cells. 1 μM of Nileprost and 1 µM of PGE2 were added during the LPS stimulation. Cells were incubated for approximately 18 hr at 37° C. IL-12 released during activation was measured by ELISA.

CCCCC(C)[C@H](O)/C=C/[C@@H]1[C@H]2C/C(=C(\C#N)CCCC(=O)O)O[C@H]2C[C@H]1O (some centres unmarked) [Nileprost]
inhibition at 0.0005 µM ([1]; Donor 1): 17% | inhibition at 0.00125 µM ([1]; Donor 1): 23% | inhibition at 0.0025 µM ([1]; Donor 1): 45% | inhibition at 0.005 µM ([1]; Donor 1): 56% | inhibition at 0.01 µM ([1]; Donor 1): 50% | inhibition at 0.02 µM ([1]; Donor 1): 67% | inhibition at 0.0005 µM ([1]; Donor 2): 2% | inhibition at 0.00125 µM ([1]; Donor 2): 11% | inhibition at 0.0025 µM ([1]; Donor 2): 17% | inhibition at 0.005 µM ([1]; Donor 2): 35% | inhibition at 0.01 µM ([1]; Donor 2): 43% | inhibition at 0.02 µM ([1]; Donor 2): 41% | inhibition at 0.0005 µM ([1]; Donor 3): 26% | inhibition at 0.00125 µM ([1]; Donor 3): 36% | inhibition at 0.0025 µM ([1]; Donor 3): 43% | inhibition at 0.005 µM ([1]; Donor 3): 54% | inhibition at 0.01 µM ([1]; Donor 3): 64% | inhibition at 0.02 µM ([1]; Donor 3): 68% | inhibition at 0.0005 µM ([1]; Donor 4): 21% | inhibition at 0.00125 µM ([1]; Donor 4): 29% | inhibition at 0.0025 µM ([1]; Donor 4): 31% | inhibition at 0.005 µM ([1]; Donor 4): 48% | inhibition at 0.01 µM ([1]; Donor 4): 55% | inhibition at 0.02 µM ([1]; Donor 4): 56% | Inhibitory activity in T lymphocyte Th-1 cytokine release (in words) ([1]; dose responsively, 0.5-20 nM): very high inhibitory activity | Inhibitory activity in cytotoxic CD8+ lymphocyte cytokine release (in words) [2]: very high inhibitory activity | inhibition at 1 µM ([2]; Donor 1, read-out: Inhibition (percent) of GM-CSF release): 77% | inhibition at 1 µM ([2]; Donor 1, read-out: Inhibition (percent) of IFN-γ release): 79% | inhibition at 1 µM ([2]; Donor 1, read-out: Inhibition (percent) of IL-2 release): 71% | inhibition at 1 µM ([2]; Donor 2, read-out: Inhibition (percent) of GM-CSF release): 65% | inhibition at 1 µM ([2]; Donor 2, read-out: Inhibition (percent) of IFN-γ release): 59% | inhibition at 1 µM ([2]; Donor 2, read-out: Inhibition (percent) of IL-2 release): 68% | inhibition at 1 µM ([2]; Donor 3, read-out: Inhibition (percent) of GM-CSF release): 87% | inhibition at 1 µM ([2]; Donor 3, read-out: Inhibition (percent) of IFN-γ release): 79% | inhibition at 1 µM ([2]; Donor 3, read-out: Inhibition (percent) of IL-2 release): 88% | inhibition at 1 µM ([2]; Donor 4, read-out: Inhibition (percent) of GM-CSF release): 61% | inhibition at 1 µM ([2]; Donor 4, read-out: Inhibition (percent) of IFN-γ release): 80% | inhibition at 1 µM ([2]; Donor 4, read-out: Inhibition (percent) of IL-2 release): 70% | Inhibitory activity in human monocyte-derived dendritic cell (DC) cytokine release (in words) ([3]; 1 μM of Nileprost): very high inhibitory activity | inhibition at 1 µM ([3]; Donor 1, 1 μM of Nileprost): 84% | inhibition at 1 µM ([3]; Donor 2, 1 μM of Nileprost): 51% | inhibition at 1 µM ([3]; Donor 3, 1 μM of Nileprost): 69% | inhibition at 1 µM ([3]; Donor 4, 1 μM of Nileprost): 66%

CCCCC[C@H](O)/C=C/[C@H]1[C@H](O)CC(=O)[C@@H]1C/C=C\CCCC(=O)O [PGE2, Prostaglandin E2, reference compound]
Inhibition (percent) of IL-12 release ([3]; Donor 1): 80% | Inhibition (percent) of IL-12 release ([3]; Donor 2): 33% | Inhibition (percent) of IL-12 release ([3]; Donor 3): 83% | Inhibition (percent) of IL-12 release ([3]; Donor 4): 72%
